Results from ChEMBL document CHEMBL1139168, “Pyrrolidino-tetrahydroisoquinolines as potent dual H3 antagonist and serotonin transporter inhibitors” (Bioorg Med Chem Lett, 2007).

Columns and labels:
[1] = target: Sodium-dependent serotonin transporter (Rattus norvegicus, UniProt P31652); assay: Displacement of [3H]citalopram from rat brain SERT
Histamine H3 receptor = Histamine H3 receptor (Homo sapiens, UniProt Q9Y5N1); assay: Binding affinity at human histamine H3 receptor expressed in SK-N-MC cells
Sequence of Histamine H3 receptor (Q9Y5N1 whole entry): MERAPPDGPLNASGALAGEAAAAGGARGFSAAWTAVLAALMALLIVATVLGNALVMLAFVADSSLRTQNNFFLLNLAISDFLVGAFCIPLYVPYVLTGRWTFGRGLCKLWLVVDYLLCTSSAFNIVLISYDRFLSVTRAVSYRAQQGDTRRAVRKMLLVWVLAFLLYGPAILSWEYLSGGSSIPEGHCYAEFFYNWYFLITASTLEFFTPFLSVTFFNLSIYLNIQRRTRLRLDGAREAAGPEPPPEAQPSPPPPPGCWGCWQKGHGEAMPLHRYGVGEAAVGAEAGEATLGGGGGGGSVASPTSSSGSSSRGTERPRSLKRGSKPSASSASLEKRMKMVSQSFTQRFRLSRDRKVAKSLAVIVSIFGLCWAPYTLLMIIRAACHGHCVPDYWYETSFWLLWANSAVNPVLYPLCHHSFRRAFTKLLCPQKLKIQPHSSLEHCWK

Rattus norvegicus [2] = assay: Increase in extracellular serotonin level in rat brain frontal cortex at 1 mg/kg, ip after 24 hrs relative to basal level; format: functional; conditions: route intraperitoneal
Mus musculus [3] = assay: Inhibition of SERT in ip dosed 5-hydroxytryptophan potentiated head twitch mouse model assessed as increase in head twitches after 24 hrs; format: functional, organism-based
[4] = Half life in rat at 1 mg/kg, iv or 10 mg/kg, po; format: ADME, organism-based; conditions: in vivo
Mus musculus [5] = assay: Inhibition of SERT in 5-hydroxytryptophan potentiated head twitch mouse model assessed as increase in head twitch response at 3 mg/kg, ip relative to control; format: functional; parameters: scale not given: the % may be the effect or the level left; conditions: route intraperitoneal
Rattus norvegicus [6] = assay: Increase in extracellular serotonin level in rat brain frontal cortex at 1 mg/kg, ip after 8 hrs relative to basal level; format: functional; conditions: route intraperitoneal
Rattus norvegicus [7] = assay: Increase in extracellular dopamine level in rat brain frontal cortex at 1 mg/kg, ip after 8 hrs relative to basal level; format: functional; conditions: route intraperitoneal
[8] = Cmax in mouse brain at 30 mg/kg, ip
[9] = Bioavailability in rat 10 mg/kg, po; format: ADME, organism-based; conditions: in vivo
Mus musculus [10] = assay: Inhibition of SERT in 5-hydroxytryptophan potentiated head twitch mouse model assessed as increase in head twitch response at 10 mg/kg, ip relative to control; format: functional; parameters: scale not given: the % may be the effect or the level left; conditions: route intraperitoneal
Rattus norvegicus [11] = assay: Increase in extracellular dopamine level in rat brain frontal cortex at 1 mg/kg, ip after 24 hrs relative to basal level; format: functional; conditions: route intraperitoneal

Sequence of Sodium-dependent serotonin transporter (P31652 whole entry): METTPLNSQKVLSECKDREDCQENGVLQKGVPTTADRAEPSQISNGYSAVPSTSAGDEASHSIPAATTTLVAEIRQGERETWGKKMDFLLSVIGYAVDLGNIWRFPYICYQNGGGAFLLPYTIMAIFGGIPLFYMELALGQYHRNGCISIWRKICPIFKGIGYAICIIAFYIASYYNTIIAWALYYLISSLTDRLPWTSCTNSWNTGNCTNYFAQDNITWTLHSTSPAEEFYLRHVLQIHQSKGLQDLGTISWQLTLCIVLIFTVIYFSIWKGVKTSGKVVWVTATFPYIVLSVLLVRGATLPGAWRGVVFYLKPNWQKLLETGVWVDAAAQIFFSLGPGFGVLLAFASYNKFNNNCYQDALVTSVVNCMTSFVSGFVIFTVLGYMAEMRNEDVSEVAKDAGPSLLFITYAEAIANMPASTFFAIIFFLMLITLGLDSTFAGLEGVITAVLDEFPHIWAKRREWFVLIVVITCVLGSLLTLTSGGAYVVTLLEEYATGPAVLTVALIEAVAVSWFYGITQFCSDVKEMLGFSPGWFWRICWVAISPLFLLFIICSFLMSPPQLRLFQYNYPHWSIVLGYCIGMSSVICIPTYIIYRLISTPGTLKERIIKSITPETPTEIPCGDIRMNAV

Ki [1] [nM]	Ki (Histamine H3 receptor) [nM]	SMILES	further results
4.7	1.7	COc1cccc(C2CN3CCCC3c3cc(OCCCN4CCCCC4)ccc32)c1 (racemic)	
14	1.3	COc1ccccc1C1CN2CCCC2c2cc(OCCCN3CCCCC3)ccc21 (racemic)	
9.3	1.7	Oc1ccc(C2CN3CCCC3c3cc(OCCCN4CCCCC4)ccc32)cc1 (racemic)	
20.7	3.7	Oc1ccccc1C1CN2CCCC2c2cc(OCCCN3CCCCC3)ccc21 (racemic)	
3.3	1.6	CN(C)c1ccc(C2CN3CCCC3c3cc(OCCCN4CCCCC4)ccc32)cc1 (racemic)	
2	0.9	c1ccc(C2CN3CCCC3c3cc(OCCCN4CCCCC4)ccc32)cc1 (racemic)	
3.3	2.5	CSc1ccc(C2CN3CCCC3c3cc(OCCCN4CCCCC4)ccc32)cc1 (racemic)	
3	2	Cc1ccc(C2CN3CCCC3c3cc(OCCCN4CCCCC4)ccc32)cc1 (racemic)	
8.7	2	C#Cc1cccc(C2CN3CCCC3c3cc(OCCCN4CCCCC4)ccc32)c1 (racemic)	
8.7	2.3	Clc1ccccc1C1CN2CCCC2c2cc(OCCCN3CCCCC3)ccc21 (racemic)	
21.7	2	FC(F)(F)c1cccc(C2CN3CCCC3c3cc(OCCCN4CCCCC4)ccc32)c1 (racemic)	
6.3	2.2	Clc1ccc(C2CN3CCCC3c3cc(OCCCN4CCCCC4)ccc32)cc1 (racemic)	
3.7	1.7	Fc1ccc(C2CN3CCCC3c3cc(OCCCN4CCCCC4)ccc32)cc1 (racemic)	
24.7	1.2	N#Cc1ccc(C2CN3CCCC3c3cc(OCCCN4CCCCC4)ccc32)cc1 (racemic)	
1.3	0.7	Oc1cccc(C2CN3CCCC3c3cc(OCCCN4CCCCC4)ccc32)c1 (racemic)	
11	4	FC(F)(F)Oc1ccc(C2CN3CCCC3c3cc(OCCCN4CCCCC4)ccc32)cc1 (racemic)	
5.3	1.3	O=[N+]([O-])c1ccc(C2CN3CCCC3c3cc(OCCCN4CCCCC4)ccc32)cc1 (racemic)	
		COc1ccc(C2CN3CCCC3c3cc(OCCCN4CCCCC4)ccc32)cc1 (racemic)	Activity (Rattus norvegicus [2]): 500%; Activity (Mus musculus [3]): Dose-dependent effect; half-life [4]: 15.7 h; Activity (Mus musculus [5]): 384%; Activity (Rattus norvegicus [6]): 500%; Activity (Rattus norvegicus [7]): 300%; Cmax [8]: 1280 nM; bioavailability [9]: 16%; Activity (Mus musculus [10]): 661%; Activity (Rattus norvegicus [11]): 300%
7	4	C#Cc1ccc(C2CN3CCCC3c3cc(OCCCN4CCCCC4)ccc32)cc1 (racemic)	

SMILES	Ki [1] [nM]	Ki (Histamine H3 receptor) [nM]	further results
FC(F)(F)c1ccc(C2CN3CCCC3c3cc(OCCCN4CCCCC4)ccc32)cc1 (racemic)	26.7	4.7	
Clc1cccc(C2CN3CCCC3c3cc(OCCCN4CCCCC4)ccc32)c1 (racemic)	4	1.2	
